From ChEMBL document CHEMBL5523751, “Discovery of Novel Diaryl-Substituted Fused Heterocycles Targeting Katanin and Tubulin with Potent Antitumor and Antimultidrug Resistance Efficacy” (J Med Chem, 2024)
Active and inactive are the calls of the source. No cut-off for these calls is given here.

Legend:
[1] = molecular target: Katanin p60 ATPase-containing subunit A1 (Homo sapiens, UniProt O75449); test: Binding affinity to N-terminal human Katanin p60 (8 to 229 residues) expressed in Escherichia coli Rosetta (DE3) assessed as dissociation constant by SPR analysis
Chain of Katanin p60 ATPase-containing subunit A1 (O75449 whole entry, the tested form may be a part): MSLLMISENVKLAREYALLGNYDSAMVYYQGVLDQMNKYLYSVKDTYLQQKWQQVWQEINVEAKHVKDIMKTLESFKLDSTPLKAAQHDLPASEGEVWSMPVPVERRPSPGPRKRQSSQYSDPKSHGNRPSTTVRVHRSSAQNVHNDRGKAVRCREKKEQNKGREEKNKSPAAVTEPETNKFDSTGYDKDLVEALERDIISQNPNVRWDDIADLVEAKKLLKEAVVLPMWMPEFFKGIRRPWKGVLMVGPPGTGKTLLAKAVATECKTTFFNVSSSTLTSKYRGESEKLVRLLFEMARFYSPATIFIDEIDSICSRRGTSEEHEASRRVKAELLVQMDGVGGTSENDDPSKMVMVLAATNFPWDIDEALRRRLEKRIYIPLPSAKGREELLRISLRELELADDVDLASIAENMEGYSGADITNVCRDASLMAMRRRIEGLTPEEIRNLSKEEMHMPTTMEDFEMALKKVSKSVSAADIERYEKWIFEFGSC

[2] = (§1) Inhibition of porcine brain tubulin polymerization; design: species or system Sus scrofa
Sus scrofa = species on record: Sus scrofa; test: as §1; conditions: dose 0.4-12 µM
MCF7 [3] = test: Induction of apoptosis in human MCF7 cells assessed as viable cells at 10 nM measured after 48 hrs by annexin-FITC and propidium iodide staining based flow cytometry analysis (reference value: 94.69%); assay type: functional; conditions: read-out: Activity
MCF7 [4] = test: Induction of apoptosis in human MCF7 cells assessed as viable cells at 40 nM measured after 48 hrs by annexin-FITC and propidium iodide staining based flow cytometry analysis (reference value: 94.69%); assay type: functional; conditions: read-out: Activity
MCF7 [5] = test: Induction of apoptosis in human MCF7 cells assessed as early apoptotic cells at 10 nM measured after 48 hrs by annexin-FITC and propidium iodide staining based flow cytometry analysis (reference value: 1.20%); assay type: functional
MCF7 [6] = test: Induction of apoptosis in human MCF7 cells assessed as late apoptotic cells at 10 nM measured after 48 hrs by annexin-FITC and propidium iodide staining based flow cytometry analysis (reference value: 3.93%); assay type: functional
MCF7 [7] = test: Induction of apoptosis in human MCF7 cells assessed as late apoptotic cells at 40 nM measured after 48 hrs by annexin-FITC and propidium iodide staining based flow cytometry analysis (reference value: 3.93%); assay type: functional
MCF7 [8] = test: Inhibition of colony formation in human MCF7 cells at 5 to 10 nM incubated for 48 hrs; assay type: functional, cell-based; conditions: dose 5-10 nM
[9] = Antiproliferative activity against human HUVEC cells assessed as cell viability at 30 to 60 nM measured after 6 hrs by MTT assay relative to control; assay type: toxicity, cell-based; conditions: dose 30-60 nM, read-out: Activity
HeLa = test: Antiproliferative activity against human HeLa assessed as inhibition of cell growth measured after 48 hrs by MTT assay; assay type: functional, cell-based
A549 = test: Antiproliferative activity against human A549 assessed as inhibition of cell growth measured after 48 hrs by MTT assay; assay type: functional, cell-based; conditions: A549, 48 h
[10] = Resistance index, ratio of IC50 for antiproliferative activity against paclitaxel resistant human A2780/Taxol cells to IC50 for antiproliferative activity against human A2780 cells; assay type: functional
[11] = Resistance index, ratio of IC50 for antiproliferative activity against cisplatin resistant human A2780/CDDP cells to IC50 for antiproliferative activity against human A2780 cells; assay type: functional
[12] = Resistance index, ratio of IC50 for antiproliferative activity against human A549/Taxol cells to IC50 for antiproliferative activity against human A549 cells; assay type: functional
MDA-MB-231 [13] = test: Downregulation of MMP-9 expression in human MDA-MB-231 cells at 5 to 40 nM by Western blot analysis; assay type: functional, cell-based; conditions: dose 5-40 nM
[14] = Acute toxicity in ICR mouse assessed as animal death at 150 mg/kg, ip measured after 3 to 14 days; assay type: organism-based; conditions: in vivo, time 3-14 day
[15] = Acute toxicity in ICR mouse assessed as survival rate at 300 mg/kg, ip measured after 14 days relative to control; assay type: organism-based; conditions: in vivo, time 14 day
MDA-MB-231 [16] = test: Antitumor activity against human MDA-MB-231 cells xenografted in BALB/c nude mouse model assessed as inhibition of tumor growth weight administered as IP dose measured after 14 days; assay type: functional; conditions: dose 7.5-15 mg/kg, time 14.0 day
MDA-MB-231 [17] = test: Antitumor activity against human MDA-MB-231 cells xenografted in BALB/c nude mouse model assessed as tumor weight reduction at 15 mg/kg, ip measured after 14 days relative to control; assay type: functional; design: scale not given: the % may be the effect or the level left; conditions: time 14 day
[18] = Toxicity in Balb/C nude mouse assessed as abnormalities in heart at 7.5 to 15 mg/kg, ip measured after 14 days by H and E staining based analysis; assay type: organism-based; conditions: in vivo, 336 h, dose 7.5-15 mg/kg, time 14 day
[19] = Toxicity in Balb/C nude mouse assessed as abnormalities in liver at 7.5 to 15 mg/kg, ip measured after 14 days by H and E staining based analysis; assay type: organism-based; conditions: in vivo, 336 h, dose 7.5-15 mg/kg, time 14 day
[20] = Toxicity in Balb/C nude mouse assessed as abnormalities in spleen at 7.5 to 15 mg/kg, ip measured after 14 days by H and E staining based analysis; assay type: organism-based; conditions: in vivo, 336 h, dose 7.5-15 mg/kg, time 14 day
[21] = Toxicity in Balb/C nude mouse xenografted with A549/Taxol assessed as effect on body weight at 15 mg/kg, ip measured after 14 days by H and E staining based analysis; assay type: organism-based, A549/TR; conditions: in vivo, 336 h, time 14 day
[22] = Toxicity in Balb/C nude mouse xenografted with A549/Taxol assessed as effect on liver at 15 mg/kg, ip measured after 14 days by H and E staining based analysis; assay type: organism-based, A549/TR; conditions: in vivo, 336 h, time 14 day
[23] = Toxicity in Balb/C nude mouse xenografted with A549/Taxol assessed as effect on lung at 15 mg/kg, ip measured after 14 days by H and E staining based analysis; assay type: organism-based, A549/TR; conditions: in vivo, 336 h, time 14 day
[24] = Toxicity in Balb/C nude mouse xenografted with A549/Taxol assessed as effect on white blood cells count at 15 mg/kg, ip measured after 14 days by biochemical assay; assay type: organism-based, A549/TR; conditions: in vivo, 336 h, time 14 day
[25] = Tmax in mouse at 15 mg/kg, po measured upto 24 hrs by LC-MS/MS analysis; assay type: ADME, organism-based; conditions: in vivo
[26] = Cmax in mouse at 15 mg/kg, po measured upto 24 hrs by LC-MS/MS analysis; assay type: ADME, organism-based; conditions: in vivo
A2780/Taxol = test: cells; conditions: Homo sapiens, 48 h

COc1cc(-n2cnc3ccc(-c4ccc(C)c(N)c4)nc32)cc(OC)c1OC
Kd [1]: 1810 nM | IC50 [2]: 2000 nM | inhibition (Sus scrofa): Dose-Dependent Effect | viability at 0.01 µM (MCF7 [3]): 53.3% | viability at 0.04 µM (MCF7 [4]): 40.1% | Activity (MCF7 [5]): 29.59% | Activity (MCF7 [6]): 16.7% | Activity (MCF7 [7]): 27.01% | inhibition (MCF7 [8]): Active | viability at 6 h, 0.06 µM [9]: > 90% | IC50 (HeLa): 0.9 nM | IC50 (A549): 1 nM | Ratio IC50 [10]: 1.54 | Ratio IC50 [11]: 1.35 | Ratio IC50 [12]: 1.45 | Activity (MDA-MB-231 [13]): Active | Activity [14]: Non-Toxic | survival at 336 h [15]: 0% | Activity (MDA-MB-231 [16]): Dose-Dependent Effect | Activity (MDA-MB-231 [17]): 84% | Activity [18]: Non-Toxic | Activity [19]: Non-Toxic | Activity [20]: Non-Toxic | Activity [21]: Non-Toxic | Activity [22]: Non-Toxic | Activity [23]: Non-Toxic | Activity [24]: Non-Toxic | Tmax [25]: 8.4 min | Cmax [26]: 1200 ng/mL | IC50 (A2780/Taxol): 4.8 nM
